From patent US7674620B2, “Derivation of terminally differentiated dopaminergic neurons from human embryonic stem cells” (Reliance Life Sciences Pvt. Ltd., priority 2003, dated 2010)

Key:
[1] = test system: embryonic stem cell-derived dopaminergic neurons; assay: Intracellular dopamine in cell lysates by RP-HPLC; assay type: cell-based, human; details: for Dopamine concentration in cell lysates by HPLC: 56 mM KCl
Experimental: One definitive characteristic of a dopaminergic neuron is the production of dopamine. Therefore, the functional capacity of embryonic stem cell-derived dopaminergic neurons to produce dopamine was evaluated by directly measuring the intracellular dopamine levels using Reverse Phase HPLC (RP-HPLC). The concentration of dopamine detected in each sample was determined by comparison with a standard solution of dopamine injected into the column immediately before and after each experiment.
(§1) To begin, cells were collected at different stages of the disclosed method: undifferentiated ES cells, embryoid bodies, Nestin-positive neuroprogenitor cells, NCAM-positive cells, and differentiated cells isolated after 7, 22, and 37 days of differentiation in Neurobasal medium. Before collection, the cells differentiated in Neurobasal medium were first stimulated to induce dopamine secretion by the addition of 56 mM KCl in HBSS for 15 minutes. Approximately 5×10^6 cells were trypsinised and pelleted by centrifugation. The cells were then sonicated in cold 1N perchloric acid with antioxidants (0.2 g/l sodium metabisulphite), and centrifuged at 15,000 rpm/min for 20 minutes at 4° C. The supematent was extracted and stored at −70° C. for subsequent determination of the intracellular dopamine concentration by RP-HPLC. Dopamine levels were determined in the cell lysates and culture supematent (48 hrs after the last medium change). The culture supematent was immediately stabilized with 7.5% orthophosphoric acid and sodium metabisulphite.

[2] = test system: embryonic stem cell-derived dopaminergic neurons; assay: Dopamine release into conditioned medium by RP-HPLC; assay type: cell-based, human; details: 56 mM for 15 minutes, 7, 22, 37 days of differentiation
Experimental: The cells were stimulated with 56 mM KCl for 15 minutes to induce secretion of dopamine; the culture supernatant was stabilized with 7.5% orthrophosphoric acid and sodium metabisulphite before analysis by RP-HPLC.
as §1

[3] = test system: embryonic stem cell-derived dopaminergic neurons; assay: Intracellular dopamine in cell lysates by RP-HPLC; assay type: cell-based, human; details: cell cultures incubated with the neurotoxin
[4] = test system: neuroprogenitor cells derived from human embryonic stem cells; assay: Differentiation of neuroprogenitor cells into TH positive (dopaminergic) neurons, immunofluorescence; assay type: cell-based; details: present in the Neurobasal medium
Text: Development of dopaminergic neurons in vivo depends on the regulated action of extracellular signaling molecules. These molecules activate a cascade of transcription factors with lineage-restricted expression. These transcription factors are responsible for increasing the expression of a specific set of genes involved in the development of the dopaminergic phenotype. To encourage the expanded neuroprogenitors cells generated using the above protocol into functional dopaminergic neurons, the growth factors bFGF and EGF were first withdrawn from the cells. Next, differentiation of the neuroprogenitors cells into dopaminergic neurons was induced by culturing the cells in Neurobasal medium for 30-50 days. […]
The differentiated neuronal cell types generated according to the present disclosure were evaluated both by the overall morphology of the cells, as well as the phenotypes identified by immunoflourescence. […]
The differentiated cells were also analyzed by double-labeling the cells with primary antibodies to TH (green), along with MAP-2, DAT, Nurr-1, β-Tubulin, FITC-labeled secondary antibodies (Texas red) respectively (FIG. 8). […] The cell density of dopaminergic neurons was quantified by counting the numbers of TH-positive cells and MAP-2-positive cells per field in randomly selected fields using a 40× objective lens. The percent proportion of TH-positive cells was calculated (FIG. 9). […]

[Cl-].[K+] [KCl]
Dopamine concentration in cell lysates by HPLC ([1]; 7 d, line #3, after 'Addition of growth factors'): 5.5 µg/mL
Dopamine concentration in cell lysates by HPLC ([1]; 7 d, line #5, after 'N-acetyl cysteine along with growth factors'): 8.8 µg/mL
Dopamine concentration in cell lysates by HPLC ([1]; 7 d, line #7, after 'Ascorbic acid along with growth factors'): 6.9 µg/mL
Dopamine concentration in cell lysates by HPLC ([1]; 22 d, line #3, after 'Addition of growth factors'): 22 µg/mL
Dopamine concentration in cell lysates by HPLC ([1]; 22 d, line #5, after 'N-acetyl cysteine along with growth factors'): 30.9 µg/mL
Dopamine concentration in cell lysates by HPLC ([1]; 22 d, line #7, after 'Ascorbic acid along with growth factors'): 5.5 µg/mL
Dopamine concentration in cell lysates by HPLC ([1]; 37 d, line #3, after 'Addition of growth factors'): 7.2 µg/mL
Dopamine concentration in cell lysates by HPLC ([1]; 37 d, line #5, after 'N-acetyl cysteine along with growth factors'): 10 µg/mL
Dopamine concentration in cell lysates by HPLC ([1]; 37 d, line #7, after 'Ascorbic acid along with growth factors'): 10 µg/mL
dopamine release into the conditioned medium (FIG. 14) [2]: causes dopamine release
dopamine release into the conditioned medium (FIG. 14) ([2]; listed as KCL): increase

CN1CC=C(c2ccccc2)CC1.Cl [MPTP, N-methyl-4-phenyl 1,2,3,6-tetrahydropyridine hydrochloride]
intracellular dopamine in cell lysates of treated cells (FIG. 13) ([1]; 7 days of differentiation): No dopamine was detected
intracellular dopamine in cell lysates of treated cells (FIG. 13) ([1]; 22 days of differentiation): No dopamine was detected
intracellular dopamine in cell lysates of treated cells (FIG. 13) ([1]; 37 days of differentiation): reduced
dopamine in cell lysates of incubated cell cultures by RP-HPLC [3]: no dopamine was detected

IL-1β: Interleukin-1β, growth factor in the Neurobasal medium
effect on amount of TH positive neurons [4]: appears to increase the amount of TH positive neurons
